Assay results taken from PubChem BioAssay (NCI).
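Five compound concentrations were applied to cells in 96-well plates for 48 hours; endpoints were derived by simple linear interpolation of the resulting dose-response curve. GI50: concentration for 50% inhibition of growth. At the TGI there is no net growth.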

How the values were obtained:
Assay in all cases: DTP human tumour cell line panel, 48 h
786-0 renal = system: 786-0 renal
TK-10 renal = system: TK-10 renal
HCC-2998 colon = system: HCC-2998 colon
OVCAR-4 ovarian = system: OVCAR-4 ovarian
SNB-75 CNS = system: SNB-75 CNS
U251 CNS = system: U251 CNS
SF-295 CNS = system: SF-295 CNS
MOLT-4 leukemia = system: MOLT-4 leukemia
COLO 205 colon = system: COLO 205 colon
UACC-257 melanoma = system: UACC-257 melanoma
HCT-15 colon = system: HCT-15 colon
SK-MEL-5 melanoma = system: SK-MEL-5 melanoma
IGROV1 ovarian = system: IGROV1 ovarian
MALME-3M melanoma = system: MALME-3M melanoma
LOX IMVI melanoma = system: LOX IMVI melanoma
A498 renal = system: A498 renal
HOP-92 NSCLC = system: HOP-92 NSCLC
CAKI-1 renal = system: CAKI-1 renal
OVCAR-5 ovarian = system: OVCAR-5 ovarian
BT-549 breast = system: BT-549 breast
HS 578T breast = system: HS 578T breast
HCT-116 colon = system: HCT-116 colon
OVCAR-8 ovarian = system: OVCAR-8 ovarian
OVCAR-3 ovarian = system: OVCAR-3 ovarian
DU-145 prostate = system: DU-145 prostate
M14 melanoma = system: M14 melanoma
SR leukemia = system: SR leukemia
SK-OV-3 ovarian = system: SK-OV-3 ovarian
SK-MEL-28 melanoma = system: SK-MEL-28 melanoma

With O=C(NC1CCN(Cc2ccccc2)CC1)c1cc(-c2ccncc2)nc2ccc(Cl)cc12 the GI50 (786-0 renal) was 6.84 µM, the TGI (786-0 renal) was 28.7 µM and the GI50 (TK-10 renal) was 29.7 µM. For the same compound, the TGI (TK-10 renal) was greater than 91.8 µM, the GI50 (HCC-2998 colon) was 21.6 µM and the TGI (HCC-2998 colon) was greater than 91.1 µM. The GI50 (OVCAR-4 ovarian) was 10.7 µM, the TGI (OVCAR-4 ovarian) was 59.6 µM and the GI50 (SNB-75 CNS) was 2.43 µM. For the same compound, the TGI (SNB-75 CNS) was 30.4 µM, the GI50 (U251 CNS) was 17.1 µM and the TGI (U251 CNS) was greater than 71.7 µM. For the same compound, the GI50 (SF-295 CNS) was 17.4 µM, the TGI (SF-295 CNS) was 53.5 µM and the GI50 (MOLT-4 leukemia) was 4.26 µM. It also gave a TGI (MOLT-4 leukemia) greater than 46.3 µM, a GI50 (COLO 205 colon) of 7.76 µM and a TGI (COLO 205 colon) of 42.7 µM. It also gave a GI50 (UACC-257 melanoma) of 16.9 µM, a TGI (UACC-257 melanoma) of 36.3 µM and a GI50 (HCT-15 colon) of 10.5 µM. It also gave a TGI (HCT-15 colon) greater than 48.2 µM, a GI50 (SK-MEL-5 melanoma) of 9.07 µM and a TGI (SK-MEL-5 melanoma) of 21.7 µM. The GI50 (IGROV1 ovarian) was 18.5 µM, the TGI (IGROV1 ovarian) was greater than 100 µM and the GI50 (MALME-3M melanoma) was 9.39 µM. For the same compound, the TGI (MALME-3M melanoma) was 26.9 µM, the GI50 (LOX IMVI melanoma) was 12 µM and the TGI (LOX IMVI melanoma) was 29.6 µM. It also gave a TGI (A498 renal) of 3.45 µM, a GI50 (HOP-92 NSCLC) of 2.49 µM and a TGI (HOP-92 NSCLC) of 47.4 µM. For the same compound, the GI50 (CAKI-1 renal) was 5.43 µM, the TGI (CAKI-1 renal) was greater than 50.5 µM and the GI50 (OVCAR-5 ovarian) was 13.9 µM. For the same compound, the TGI (OVCAR-5 ovarian) was greater than 100 µM, the GI50 (BT-549 breast) was 17.2 µM and the TGI (BT-549 breast) was 99.9 µM. It also gave a GI50 (HS 578T breast) of 14.4 µM, a TGI (HS 578T breast) of 64 µM and a GI50 (HCT-116 colon) of 9.64 µM. The TGI (HCT-116 colon) was 33.9 µM, the GI50 (OVCAR-8 ovarian) was 22.5 µM and the TGI (OVCAR-8 ovarian) was greater than 72.9 µM. For the same compound, the GI50 (OVCAR-3 ovarian) was 15.4 µM, the TGI (OVCAR-3 ovarian) was 40.1 µM and the GI50 (DU-145 prostate) was 20.1 µM. For the same compound, the TGI (DU-145 prostate) was 63.1 µM, the GI50 (M14 melanoma) was 7.02 µM and the TGI (M14 melanoma) was 34.9 µM. For the same compound, the GI50 (SR leukemia) was 6.82 µM, the TGI (SR leukemia) was 34.8 µM and the GI50 (SK-OV-3 ovarian) was 23.3 µM. The TGI (SK-OV-3 ovarian) was greater than 100 µM, the GI50 (SK-MEL-28 melanoma) was 10.5 µM and the TGI (SK-MEL-28 melanoma) was greater than 50.7 µM.
